Laboratory results taken from patent US20050282159A1, “Rpob gene of streptomyces, primer specific to streptomyces, and identification method of streptomyces having rifampin resistance or sensitivity by using the same” (priority 2001, published 2005).

Columns and labels:
[1] = system: 47 strains of Streptomyces references; assay: rifampin-sensitive test on Bennet solid media (summary); format: cell-based; settings: 25 ug/ml rifampin, 72 hr
Description: A total of 47 strains of Streptomyces references including 24 reference strains having AAC encoding Asp and 23 reference strains having TCG or TCC encoding Ser at the sequenced positions were used, and 306-bI rpoB nucleotide sequences of the […] strains are shown in SEQUENCE LISTING.
(§1) The 47 strains were respectively cultured at 28° C. for 72 hr in Bennet liquid media. The culture solution was then inoculated on Bennet solid media (yeast extract 1 g/L, Beef extract 1 g/L, Tryptone 2 g/L, Glycerol 10 g/L, Agar 15 g/L) containing 25 ug/ml rifampin, and after incubation for 72 hr, rifampin-resistance was tested.

[2] = system: S. coeruleofuscus KCCM 40506; settings: TCG (TCC) genotype
Description: (§2) The primer sets of SEQ ID NOs: 1 and 2 were used to amplify rpoB genes of 60 strains, and nucleotides of the […] products were analyzed with an automatic sequencer. SRPOF1 as a forward primer and SRPOR1 as a backward primer were used.

[3] = system: S. aburaviensis KCTC 9663; settings: TCG (TCC) genotype
Description: as §2

S. carpinensis KCTC 9128 = settings: TCG (TCC) genotype
Description: as §2

[4] = system: S. disatochromogenes KCCM 40449; settings: TCG (TCC) genotype
Description: as §2

[5] = system: S. hachijoense KCCM 32306; settings: TCG (TCC) genotype
Description: as §2

S. umbrinus KCCM 40316 = settings: AAC genotype
Description: as §2

[6] = system: S. griseoruber KCCM 40658; settings: TCG (TCC) genotype
Description: as §2

[7] = system: S. aureufaciens KCCM 40127; settings: TCG (TCC) genotype
Description: as §2

[8] = system: S. indigoferus KCCM 40495; settings: TCG (TCC) genotype
Description: as §2

S. tendae KCCM 40105 = settings: AAC genotype
Description: as §2

S. cremeus KCCM 40509 = settings: TCG (TCC) genotype
Description: as §2

[9] = system: S. chromogenes KCCM 40727; settings: TCG (TCC) genotype
Description: as §2

[10] = system: S. citreofluorescens KCTC 9710; settings: TCG (TCC) genotype
Description: as §2

S. kifunensis KCTC 9734 = settings: TCG (TCC) genotype
Description: as §2

S. plicatus KCTC 9040 = assay: rifampin-sensitive test on Bennet solid media; format: cell-based; parameters: key: “(+)” indicates a genotype with rifampin-resistance; “(−)” indicates a genotype with rifampin-susceptibility; settings: AAC genotype, 25 ug/ml rifampin, 72 hr
Description: as §1

S. galilaeus KCTC 1919 = assay: rifampin-sensitive test on Bennet solid media; format: cell-based; parameters: key: “(+)” indicates a genotype with rifampin-resistance; “(−)” indicates a genotype with rifampin-susceptibility; settings: AAC genotype, 25 ug/ml rifampin, 72 hr
Description: as §1

S. chartreuses KCTC 9704 = assay: rifampin-sensitive test on Bennet solid media; format: cell-based; parameters: key: “(+)” indicates a genotype with rifampin-resistance; “(−)” indicates a genotype with rifampin-susceptibility; settings: TCG (TCC) genotype, 25 ug/ml rifampin, 72 hr
Description: as §1

[11] = system: S. chrysomallus KCTC 9705; assay: rifampin-sensitive test on Bennet solid media; format: cell-based; parameters: key: “(+)” indicates a genotype with rifampin-resistance; “(−)” indicates a genotype with rifampin-susceptibility; settings: TCG (TCC) genotype, 25 ug/ml rifampin, 72 hr
Description: as §1

S. albus KCTC 1082 = assay: rifampin-sensitive test on Bennet solid media; format: cell-based; parameters: key: “(+)” indicates a genotype with rifampin-resistance; “(−)” indicates a genotype with rifampin-susceptibility; settings: AAC genotype, 25 ug/ml rifampin, 72 hr
Description: as §1

S. durhamensis KCTC 9723 = assay: rifampin-sensitive test on Bennet solid media; format: cell-based; parameters: key: “(+)” indicates a genotype with rifampin-resistance; “(−)” indicates a genotype with rifampin-susceptibility; settings: AAC genotype, 25 ug/ml rifampin, 72 hr
Description: as §1

S. avidinii KCTC 9757 = assay: rifampin-sensitive test on Bennet solid media; format: cell-based; parameters: key: “(+)” indicates a genotype with rifampin-resistance; “(−)” indicates a genotype with rifampin-susceptibility; settings: AAC genotype, 25 ug/ml rifampin, 72 hr
Description: as §1

S. almquistii KCTC 9751 = assay: rifampin-sensitive test on Bennet solid media; format: cell-based; parameters: key: “(+)” indicates a genotype with rifampin-resistance; “(−)” indicates a genotype with rifampin-susceptibility; settings: TCG (TCC) genotype, 25 ug/ml rifampin, 72 hr
Description: as §1

S. pulveraceus KCTC 9766 = assay: rifampin-sensitive test on Bennet solid media; format: cell-based; parameters: key: “(+)” indicates a genotype with rifampin-resistance; “(−)” indicates a genotype with rifampin-susceptibility; settings: AAC genotype, 25 ug/ml rifampin, 72 hr
Description: as §1

S. coelicolor KCTC 9005 = assay: rifampin-sensitive test on Bennet solid media; format: cell-based; parameters: key: “(+)” indicates a genotype with rifampin-resistance; “(−)” indicates a genotype with rifampin-susceptibility; settings: AAC genotype, 25 ug/ml rifampin, 72 hr
Description: as §1

S. armeniacus KCTC 9120 = assay: rifampin-sensitive test on Bennet solid media; format: cell-based; parameters: key: “(+)” indicates a genotype with rifampin-resistance; “(−)” indicates a genotype with rifampin-susceptibility; settings: AAC genotype, 25 ug/ml rifampin, 72 hr
Description: as §1

[12] = system: S. chattanoogensis KCTC 1087; assay: rifampin-sensitive test on Bennet solid media; format: cell-based; parameters: key: “(+)” indicates a genotype with rifampin-resistance; “(−)” indicates a genotype with rifampin-susceptibility; settings: TCG (TCC) genotype, 25 ug/ml rifampin, 72 hr
Description: as §1

[13] = system: S. cinereoruber KCTC 9707; assay: rifampin-sensitive test on Bennet solid media; format: cell-based; parameters: key: “(+)” indicates a genotype with rifampin-resistance; “(−)” indicates a genotype with rifampin-susceptibility; settings: TCG (TCC) genotype, 25 ug/ml rifampin, 72 hr
Description: as §1

S. albulus KCTC 9668 = assay: rifampin-sensitive test on Bennet solid media; format: cell-based; parameters: key: “(+)” indicates a genotype with rifampin-resistance; “(−)” indicates a genotype with rifampin-susceptibility; settings: TCG (TCC) genotype, 25 ug/ml rifampin, 72 hr
Description: as §1

[14] = system: S. alanosinicus KCTC 9683; assay: rifampin-sensitive test on Bennet solid media; format: cell-based; parameters: key: “(+)” indicates a genotype with rifampin-resistance; “(−)” indicates a genotype with rifampin-susceptibility; settings: AAC genotype, 25 ug/ml rifampin, 72 hr
Description: as §1

CO[C@H]1/C=C/O[C@@]2(C)Oc3c(C)c(O)c4c(O)c(c(/C=N/N5CCN(C)CC5)c(O)c4c3C2=O)NC(=O)/C(C)=C\C=C\[C@H](C)[C@H](O)[C@@H](C)[C@@H](O)[C@@H](C)[C@H](OC(C)=O)[C@@H]1C [rifampin]
rifampin resistance or sensitivity of the strains ([1]; all 24 strains having AAC genotypes): rifampin-resistant strains
rifampin resistance or sensitivity of the strains ([1]; the 23 strains having TCG or TCC genotypes): rifampin-sensitive strains
genotype (rifampin-resistant or -sensitive strain) [2]: −
genotype (rifampin-resistant or -sensitive strain) [3]: −
genotype (rifampin-resistant or -sensitive strain) (S. carpinensis KCTC 9128): −
genotype (rifampin-resistant or -sensitive strain) [4]: −
genotype (rifampin-resistant or -sensitive strain) [5]: −
genotype (rifampin-resistant or -sensitive strain) (S. umbrinus KCCM 40316): +
genotype (rifampin-resistant or -sensitive strain) [6]: −
genotype (rifampin-resistant or -sensitive strain) [7]: −
genotype (rifampin-resistant or -sensitive strain) [8]: −
genotype (rifampin-resistant or -sensitive strain) (S. tendae KCCM 40105): +
genotype (rifampin-resistant or -sensitive strain) (S. cremeus KCCM 40509): −
genotype (rifampin-resistant or -sensitive strain) [9]: −
genotype (rifampin-resistant or -sensitive strain) [10]: −
genotype (rifampin-resistant or -sensitive strain) (S. kifunensis KCTC 9734): −
genotype (rifampin-resistance or susceptibility) (S. plicatus KCTC 9040): +
genotype (rifampin-resistance or susceptibility) (S. galilaeus KCTC 1919): +
genotype (rifampin-resistance or susceptibility) (S. chartreuses KCTC 9704): −
genotype (rifampin-resistance or susceptibility) [11]: −
genotype (rifampin-resistance or susceptibility) (S. albus KCTC 1082): +
genotype (rifampin-resistance or susceptibility) (S. durhamensis KCTC 9723): +
genotype (rifampin-resistance or susceptibility) (S. avidinii KCTC 9757): +
genotype (rifampin-resistance or susceptibility) (S. almquistii KCTC 9751): −
genotype (rifampin-resistance or susceptibility) (S. pulveraceus KCTC 9766): +
genotype (rifampin-resistance or susceptibility) (S. coelicolor KCTC 9005): +
genotype (rifampin-resistance or susceptibility) (S. armeniacus KCTC 9120): +
genotype (rifampin-resistance or susceptibility) [12]: −
genotype (rifampin-resistance or susceptibility) [13]: −
genotype (rifampin-resistance or susceptibility) (S. albulus KCTC 9668): −
genotype (rifampin-resistance or susceptibility) [14]: +
